Read-outs that look alike come from different tables or passages of the source.
Experiments:
[1] = biological target: T1, DAT (Rattus norvegicus, UniProt P23977); assay: DAT radioligand binding in rat striatum ([3H]-WIN35,428 competition); details: for SERT/DAT: ratio of SERT Ki to DAT Ki
T1 construct: 100 μl of tissue preparation (1.5 mg of brain striatum membranes per well); tissue Bioreclamation IVT (Hicksville, N.Y.); host or cells: male Sprague-Dawley rat brain striatum membranes
Protocol: (§1) Binding affinities of the analogue compounds were evaluated at the DAT and SERT in rat brain membranes, and sigma-1 in guinea pig brain membranes according to the following protocols.
DAT Radioligand Binding in Rat Striatum
The tissue was centrifuged at 20,000 rpm for 10 min at 4° C. The pellet was suspended in cold buffer and centrifuged again using the same settings. The resulting pellet was resuspended in cold buffer at a concentration of 15 mg/mL OWW (original wet weight). On test day, all test compounds were freshly dissolved in 30% DMSO and 70% H2O to a stock concentration of 1 mM or 100 μM When necessary, to assist the solubilization of compounds, 10 μl of glacial acetic acid was added along with the DMSO (in place of 10 μl final H2O volume). Each test compound was then diluted into 10 half-log serial dilutions using 30% DMSO vehicle. […] Non-specific binding was determined using […] Indatraline and total binding was determined with 30% DMSO vehicle. The reaction was started with the addition of the tissue. […] The filters were washed 3 times with 3 mL (3×1 mL/well) of ice cold binding buffer. […] These analyses were performed using GraphPad Prism version 6.00 for Macintosh (GraphPad Software, San Diego, Calif.).

[2] = biological target: T2, SERT (Rattus norvegicus, UniProt P31652); assay: SERT radioligand binding in rat midbrain ([3H]-Citalopram competition)
T2 construct: 100 μl of tissue preparation (2 mg of brain stem membranes per well); tissue Bioreclamation IVT (Hicksville, N.Y.); host or cells: male Sprague-Dawley rat brain stem membranes
Protocol: as §1
SERT Radioligand Binding in Rat Midbrain
The tissue was centrifuged at 20,000 rpm for 10 min at 4° C. The pellet was suspended in cold buffer and centrifuged again using the same settings. The resulting pellet was resuspended in cold buffer at a concentration of 20 mg/mL OWW (original wet weight). On test day, all test compounds were freshly dissolved in 30% DMSO and 70% H2O to a stock concentration of 1 mM or 100 μM. When necessary, to assist the solubilization of compounds, 10 μl of glacial acetic acid was added along with the DMSO (in place of 10 μl final H2O volume). Each test compound was then diluted into 10 half-log serial dilutions using 30% DMSO vehicle. […] Non-specific binding was determined using […] Fluoxetine HCl and total binding was determined with 30% DMSO vehicle. The reaction was started with the addition of the tissue. All compound dilutions were tested in triplicate and the reaction incubated for 60 min at room temperature. The reaction was terminated by filtration through Perkin Elmer Uni-Filter-96 GF/B, presoaked for 60 min in 0.3% polyethylenimine, using a Brandel 96-Well Plates Harvester Manifold (Brandel Instruments, Gaithersburg, Md.). The filters were washed 3 times with 3 mL (3×1 mL/well) of ice cold binding buffer. […] These analyses were performed using GraphPad Prism version 6.00 for Macintosh (GraphPad Software, San Diego, Calif.).

[3] = biological target: T3, σ1R (Cavia porcellus, UniProt Q60492); assay: σ1R radioligand binding in guinea pig cortex ([3H]-(+)-Pentazocine competition); details: for σ1/DAT: ratio of σ1 to DAT affinity values; for σ1/SERT: ratio of σ1 to SERT affinity values
T3 construct: tissue BioReclamation IVT (Hicksville, N.Y.); host or cells: male Hartley guinea pig brain cortex membranes
Protocol: as §1
σ1R Radioligand Binding in Guinea Pig Cortex
Male Hartley guinea pig cortices were dissected from freshly harvested brains (shipped cold in PBS buffer from BioReclamation IVT (Hicksville, N.Y.)) and frozen at −80° C. for future use. […] The supernatant was collected in a clean tube and the pellet re-suspended in 10 ml of cold buffer and centrifuged again (˜1,200 rpm) for 10 min at 4° C. […] The final pellet was suspended in ice-cold binding buffer at 50 mg/ml concentration. […] All test compounds were freshly dissolved in 30% DMSO and 70% H2O to a stock concentration of 1 mM or 100 μM. When necessary, to assist the solubilization of compounds, 10 μl of glacial acetic acid was added along with the DMSO (in place of 10 μl final H2O volume). Each test compound was then diluted into 10 half-log serial dilutions using 30% DMSO as the vehicle. […] Nonspecific binding was determined using either 10 μM PRE084 or 10 μM (+)-Pentazocine and total binding was determined with 30% DMSO vehicle (3% DMSO final concentration). […] The filters were washed 3 times with 3 ml (3×1 ml/well) of ice cold binding buffer.

[4] = Phase I metabolic stability in rat liver microsomes; type: in vitro ADME; details: for Phase I in Liver Microsomes, Negative Control: rat liver microsomes lacking NADPH; for Phase I in Liver Microsomes, Rat: with NADPH, 10 μM compound, 0.5 mg/mL microsomes
Protocol: Methods: Phase I metabolic stability assays were conducted in rat liver microsomes. For phase I metabolism, the reactions were carried out with 100 mM potassium phosphate buffer, pH 7.4, in the presence of NADPH regenerating system (1.3 mM NADPH, 3.3 mM glucose 6-phosphate, 3.3 mM MgCl2, 0.4 U/mL glucose-6-phosphate dehydrogenase, […] sodium citrate). Reactions in triplicate were initiated by addition of the liver microsomes to the incubation mixture (compound final concentration was 10 μM; 0.5 mg/mL microsomes). Compound disappearance was monitored via LC/MS/MS. […] The total run time for each analyte was 5.0 min.

[5] = rat striatum membranes, [3H]-WIN35,428, mean ± SEM, read-out: DAT (rat striatum) Ki ± SEM
[6] = rat midbrain/brain stem membranes, [3H]-Citalopram, mean ± SEM, read-out: SERT (rat mid-brain-stem) Ki ± SEM

T3 sequence (Q60492 whole entry): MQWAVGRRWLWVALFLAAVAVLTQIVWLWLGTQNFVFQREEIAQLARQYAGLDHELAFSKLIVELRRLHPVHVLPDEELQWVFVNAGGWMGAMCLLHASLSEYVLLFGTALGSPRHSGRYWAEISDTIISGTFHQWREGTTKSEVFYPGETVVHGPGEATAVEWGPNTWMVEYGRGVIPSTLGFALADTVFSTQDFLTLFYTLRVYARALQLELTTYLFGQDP
T2 sequence (P31652 whole entry): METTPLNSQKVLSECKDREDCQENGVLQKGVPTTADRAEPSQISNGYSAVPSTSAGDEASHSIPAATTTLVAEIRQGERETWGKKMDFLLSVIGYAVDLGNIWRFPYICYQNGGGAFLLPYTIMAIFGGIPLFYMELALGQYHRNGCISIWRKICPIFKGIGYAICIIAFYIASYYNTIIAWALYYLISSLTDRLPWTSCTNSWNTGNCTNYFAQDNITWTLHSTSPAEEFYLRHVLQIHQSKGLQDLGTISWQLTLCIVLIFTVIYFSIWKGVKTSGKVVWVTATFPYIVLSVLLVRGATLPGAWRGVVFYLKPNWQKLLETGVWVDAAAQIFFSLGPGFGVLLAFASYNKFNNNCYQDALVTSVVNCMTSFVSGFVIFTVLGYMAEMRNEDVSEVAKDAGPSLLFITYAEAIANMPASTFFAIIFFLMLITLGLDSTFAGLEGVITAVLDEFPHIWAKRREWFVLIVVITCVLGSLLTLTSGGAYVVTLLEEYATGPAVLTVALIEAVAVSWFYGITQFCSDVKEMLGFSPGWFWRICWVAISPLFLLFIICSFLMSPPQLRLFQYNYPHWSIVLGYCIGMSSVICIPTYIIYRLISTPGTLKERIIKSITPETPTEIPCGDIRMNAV
T1 sequence (P23977 whole entry): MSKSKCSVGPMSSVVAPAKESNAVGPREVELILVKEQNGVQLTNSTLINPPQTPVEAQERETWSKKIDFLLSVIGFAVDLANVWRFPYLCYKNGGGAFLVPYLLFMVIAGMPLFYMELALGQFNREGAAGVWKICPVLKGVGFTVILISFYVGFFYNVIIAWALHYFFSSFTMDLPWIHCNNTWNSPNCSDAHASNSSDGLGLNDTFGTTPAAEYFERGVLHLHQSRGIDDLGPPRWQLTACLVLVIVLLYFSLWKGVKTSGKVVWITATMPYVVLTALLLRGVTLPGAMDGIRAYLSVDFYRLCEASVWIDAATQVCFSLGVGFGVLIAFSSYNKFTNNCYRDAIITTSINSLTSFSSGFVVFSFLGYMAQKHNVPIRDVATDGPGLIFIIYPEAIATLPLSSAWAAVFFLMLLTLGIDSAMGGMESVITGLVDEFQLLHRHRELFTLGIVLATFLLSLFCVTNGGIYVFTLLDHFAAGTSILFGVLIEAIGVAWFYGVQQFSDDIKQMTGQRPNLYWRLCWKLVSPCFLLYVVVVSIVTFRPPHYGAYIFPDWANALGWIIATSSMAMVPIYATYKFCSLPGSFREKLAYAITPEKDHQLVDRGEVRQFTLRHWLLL

SMILES | Ki [1, 5] [nM] | SERT/DAT [1] | Ki [2, 6] [nM] | σ1/DAT [3] | σ1/SERT [3] | other results
Fc1ccc(C(SCCNC2CCN(Cc3ccccc3)CC2)c2ccc(F)cc2)cc1 [JBG01-052, 1-Benzyl-N-(2-((bis(4-fluorophenyl)methyl)thio)ethyl)piperidin-4-amine] | 32.9 ± 5.86 | 12.37 | 407 ± 57.9 | 0.12 | 0.0098 | Kd [3]: 3.97 ± 0.767 nM
Cl.Cl.OC(Cc1ccccc1)CN(CC(O)Cc1ccccc1)C1CCN(CCSC(c2ccc(F)cc2)c2ccc(F)cc2)CC1 (centres unmarked) [JBG01-056, 3,3′-((1-(2-((Bis(4-fluorophenyl)methyl)thio)ethyl)piperidin-4-yl)azanediyl)bis(1-phenylpropan-2-ol)] |  | 8.44 |  | 1.75 | 0.21 | Ki [1]: 186 ± 46.4 nM; Ki [2]: 1570 ± 315 nM; Kd [3]: 326 ± 22.4 nM
Fc1ccc(C(SCCN2CCC(NCc3ccccc3)CC2)c2ccc(F)cc2)cc1 [JBG01-057, N-Benzyl-1-(2-((bis(4-fluorophenyl)methyl)thio)ethyl)piperidin-4-amine] | 108 ± 17.5 | 3.05 | 329 ± 34.3 | 0.56 | 0.19 | 
Cl.Cl.OC(Cc1ccccc1)CN1CCC(NCCSC(c2ccc(F)cc2)c2ccc(F)cc2)CC1 (centres unmarked) [JBG01-058, 1-(4-((2-((Bis(4-fluorophenyl)methyl)thio)ethyl)amino)piperidin-1-yl)-3-phenylpropan-2-ol] |  |  | 128 ± 33.2 |  |  | Phase I in Liver Microsomes, Negative Control ([4]; 0 min): 100%; Phase I in Liver Microsomes, Rat ([4]; 0 min): 100%; Phase I in Liver Microsomes, Rat ([4]; 30 min): 98%; Phase I in Liver Microsomes, Negative Control ([4]; 60 min): 96%; Phase I in Liver Microsomes, Rat ([4]; 60 min): 74%
Cl.Cl.Fc1ccc(CNC2CCN(CCSC(c3ccc(F)cc3)c3ccc(F)cc3)CC2)cc1 [JBG01-064, 1-(2-((Bis(4-fluorophenyl)methyl)thio)ethyl)-N-(4-fluorobenzyl)piperidin-4-amine] | 55.9 ± 6.08 | 4.78 | 267 ± 9.25 | 0.74 | 0.16 | 
Cl.Cl.Fc1ccc(C(SCCNC2CCN(Cc3ccc(Cl)cc3)CC2)c2ccc(F)cc2)cc1 [JBG01-078, N-(2-((Bis(4-fluorophenyl)methyl)thio)ethyl)-1-(4 chlorobenzyl)piperidin-4-amine] | 39.6 ± 9.27 | 8.99 | 356 ± 0.862 | 1.15 | 0.13 | 
Cl.Cl.Fc1ccc(C(SCCNC2CCN(Cc3ccc(C(F)(F)F)cc3)CC2)c2ccc(F)cc2)cc1 [JBG01-083, N-(2-((Bis(4-fluorophenyl)methyl)thio)ethyl)-1-(4-(trifluoromethyl)benzyl)piperidin-4-amine] | 190 ± 47.9 | 8.53 | 1620 ± 175 |  |  | 
Cl.Cl.Fc1ccc(C(SCCNC2CCN(CCc3ccccc3)CC2)c2ccc(F)cc2)cc1 [JBG01-084, N-(2-((Bis(4-fluorophenyl)methyl)thio)ethyl)-1-phenethylpiperidin-4-amine] | 31.5 ± 5.32 | 4.57 | 144 ± 17 | 1.83 | 0.40 | 
Cl.Cl.Fc1ccc(C(SCCN2CCC(NCc3ccc(Cl)cc3)CC2)c2ccc(F)cc2)cc1 [JBG01-086, 1-(2-((Bis(4-fluorophenyl)methyl)thio)ethyl)-N-(4-chlorobenzyl)piperidin-4-amine] | 86.5 ± 35.6 | 4.57 | 395 ± 56.6 | 0.72 | 0.16 | 
Cl.Cl.Fc1ccc(C(SCCN2CCC(NCc3ccc(C(F)(F)F)cc3)CC2)c2ccc(F)cc2)cc1 [JBG01-087, 1-(2-((Bis(4-fluorophenyl)methyl)thio)ethyl)-N-(4-(trifluoromethyl)benzyl)piperidin-4-amine] | 128 ± 31.9 | 8.13 | 1040 ± 190 |  |  | 
Cl.O=C(c1ccccc1)N1CCC(NCCSC(c2ccc(F)cc2)c2ccc(F)cc2)CC1 [JBG02-009, (4-((2-((Bis(4-fluorophenyl)methyl)thio)ethyl)amino)piperidin-1-yl)(phenyl)methanone] |  |  |  |  |  | Phase I in Liver Microsomes, Negative Control ([4]; 0 min): 100%; Phase I in Liver Microsomes, Rat ([4]; 0 min): 100%; Phase I in Liver Microsomes, Rat ([4]; 30 min): 20%; Phase I in Liver Microsomes, Negative Control ([4]; 60 min): 100%; Phase I in Liver Microsomes, Rat ([4]; 60 min): 7%; stability to Phase I metabolism (in words) ([4]; rat liver microsomes fortified with NADPH): susceptibility; Kd [3]: 2.04 ± 0.298 nM
Cl.Cl.Fc1ccc(C(SCCNC2CCN(Cc3cc4ccccc4[nH]3)CC2)c2ccc(F)cc2)cc1 [JBG02-014, 1-((1H-Indol-2-yl)methyl)-N-(2-((bis(4-fluorophenyl)methyl)thio)ethyl)piperidin-4-amine] | 179 ± 22 | 9.61 | 1720 ± 516 |  |  | 
O=C(c1cc2ccccc2o1)N1CCC(NCCSC(c2ccc(F)cc2)c2ccc(F)cc2)CC1 [JBG02-015, Benzofuran-2-yl(4-((2-((bis(4-fluorophenyl)methyl)thio)ethyl)amino)piperidin-1-yl)methanone] | 115 ± 19.5 |  | 96.4 ± 23.7 |  |  | 
Cl.Cl.O.O=C(c1cc2ccccc2[nH]1)N1CCC(NCCSC(c2ccc(F)cc2)c2ccc(F)cc2)CC1 [JBG02-029, (4-((2-((Bis(4-fluorophenyl)methyl)thio)ethyl)amino)piperidin-1-yl)(1H-indol-2-yl)methanone] |  | 5.21 | 938 ± 76.5 |  |  | Ki [1]: 180 ± 39.8 nM
Cl.O=C(c1ccccc1)N1CCC(NCC[S+]([O-])C(c2ccc(F)cc2)c2ccc(F)cc2)CC1 (centres unmarked) [JBG02-055, (4-((2-((Bis(4-fluorophenyl)methyl)sulfinyl)ethyl)amino)piperidin-1-yl)(phenyl)methanone] | 79.1 ± 20.6 | 97.72 | 7730 ± 732 |  |  | 
CC(C)(C)C(=O)N1CCC(NCCSC(c2ccc(F)cc2)c2ccc(F)cc2)CC1.Cl [JBG02-064, 1-(4-((2-((Bis(4-fluorophenyl)methyl)thio)ethyl)amino)piperidin-1-yl)-2,2-dimethylpropan-1-one] | 352 ± 137 | 2.84 | 1000 ± 228 |  |  | 
CC(C)(C)CN1CCC(NCCSC(c2ccc(F)cc2)c2ccc(F)cc2)CC1 [JBG02-066, N-(2-((Bis(4-fluorophenyl)methyl)thio)ethyl)-1-neopentylpiperidin-4-amine] | 279 ± 39.4 | 3.39 | 947 ± 101 | 1.13 |  | 

— patent publication US11365195B2, “Atypical inhibitors of monoamine transporters; method of making; and use thereof” (THE UNITED STATES OF AMERICA, AS REPRESENTED BY THE …, priority 2017, dated 2022)
